Experimental data as given in publication PMC9898036, “VIP152 is a selective CDK9 inhibitor with pre-clinical in vitro and in vivo efficacy in chronic lymphocytic leukemia” (Leukemia, 2022).

Legend:
Experiment in all cases: DiscoverX KINOMEscan kinase profiling (468 assays)
Type in all cases: binding
human kinome [1] = biological target: human kinome (Homo sapiens, UniProt O75116); conditions: kinase ROCK2 (Entrez ROCK2); compound concentration 1000 nM; read-out: Percent Control
Protocol: (§1) Kinomescan Kinase Profiling Assay
(§2) Kinomescan Assay was performed at DiscoverRX and described in Fabian, et al. 2005, Nat.
(§3) Biotechnol. In brief, kinases were produced and subsequently tagged with DNA for qPCR detection.
(§4) Streptavidin-coated magnetic beads were bound to biotinylated kinase ligands to serve as a solid support.
(§5) VIP152 was dissolved in DMSO and tested across a 10 serial threefold dilution set and compared to a test
(§6) compound and a DMSO control.
(§7) Kinome map was produced via TreeSpot
(§8) Analysis from DiscoverRX. […]

human kinome [2] = biological target: human kinome (Homo sapiens, UniProt O94804); conditions: LOK (Entrez STK10); 100 nM; read-out: Percent Control
Protocol: as §1, §2, §3, §4, §5, §6, §7, §8

human kinome [3] = biological target: human kinome (Homo sapiens, UniProt P07949); conditions: kinase RET (Entrez RET); compound concentration 1000 nM; read-out: Percent Control
Protocol: as §1, §2, §3, §4, §5, §6, §7, §8

human kinome [4] = biological target: human kinome (Homo sapiens, UniProt P09619); conditions: read-out: Percent Control
Protocol: as §1, §2, §3, §4, §5, §6, §7, §8

human kinome [5] = biological target: human kinome (Homo sapiens, UniProt P21709); conditions: EPHA1; 100 nM; read-out: Percent Control
Protocol: as §1, §2, §3, §4, §5, §6, §7, §8

human kinome [6] = biological target: human kinome (Homo sapiens, UniProt P36507); conditions: MEK2 (Entrez MAP2K2); 100 nM; read-out: Percent Control
Protocol: as §1, §2, §3, §4, §5, §6, §7, §8

human kinome [7] = biological target: human kinome (Homo sapiens, UniProt P36896); conditions: ACVR1B; 100 nM; read-out: Percent Control
Protocol: as §1, §2, §3, §4, §5, §6, §7, §8

human kinome [8] = biological target: human kinome (Homo sapiens, UniProt P42336, E542K); conditions: read-out: Percent Control
Protocol: as §1, §2, §3, §4, §5, §6, §7, §8

human kinome [9] = biological target: human kinome (Homo sapiens, UniProt P42336, I800L); conditions: read-out: Percent Control
Protocol: as §1, §2, §3, §4, §5, §6, §7, §8

human kinome [10] = biological target: human kinome (Homo sapiens, UniProt P45985); conditions: MEK4 (Entrez MAP2K4); 100 nM; read-out: Percent Control
Protocol: as §1, §2, §3, §4, §5, §6, §7, §8

human kinome [11] = biological target: human kinome (Homo sapiens, UniProt P51817); conditions: read-out: Percent Control
Chain of human kinome (Homo sapiens, UniProt P51817) (P51817 whole entry): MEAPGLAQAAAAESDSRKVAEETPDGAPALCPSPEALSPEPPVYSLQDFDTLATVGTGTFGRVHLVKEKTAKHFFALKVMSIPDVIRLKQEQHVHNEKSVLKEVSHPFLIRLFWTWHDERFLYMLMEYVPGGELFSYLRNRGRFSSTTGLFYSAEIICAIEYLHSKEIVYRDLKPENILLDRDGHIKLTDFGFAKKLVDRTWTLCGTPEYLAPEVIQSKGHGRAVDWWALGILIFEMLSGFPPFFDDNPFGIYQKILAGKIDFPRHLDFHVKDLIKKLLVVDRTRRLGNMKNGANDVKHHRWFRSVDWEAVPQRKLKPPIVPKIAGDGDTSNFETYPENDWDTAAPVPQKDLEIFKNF
Protocol: as §1, §2, §3, §4, §5, §6, §7, §8

human kinome [12] = biological target: human kinome (Homo sapiens, UniProt P57058); conditions: HUNK; 100 nM; read-out: Percent Control
Protocol: as §1, §2, §3, §4, §5, §6, §7, §8

human kinome [13] = biological target: human kinome (Homo sapiens, UniProt Q00532); conditions: CDKL1; 100 nM; read-out: Percent Control
Protocol: as §1, §2, §3, §4, §5, §6, §7, §8

human kinome [14] = biological target: human kinome (Homo sapiens, UniProt Q13233); conditions: MAP3K1; 100 nM; read-out: Percent Control
Protocol: as §1, §2, §3, §4, §5, §6, §7, §8

human kinome [15] = biological target: human kinome (Homo sapiens, UniProt Q13705); conditions: ACVR2B; 100 nM; read-out: Percent Control
Protocol: as §1, §2, §3, §4, §5, §6, §7, §8

human kinome [16] = biological target: human kinome (Homo sapiens, UniProt Q16513); conditions: read-out: Percent Control
Chain of human kinome (Homo sapiens, UniProt Q16513) (Q16513 whole entry): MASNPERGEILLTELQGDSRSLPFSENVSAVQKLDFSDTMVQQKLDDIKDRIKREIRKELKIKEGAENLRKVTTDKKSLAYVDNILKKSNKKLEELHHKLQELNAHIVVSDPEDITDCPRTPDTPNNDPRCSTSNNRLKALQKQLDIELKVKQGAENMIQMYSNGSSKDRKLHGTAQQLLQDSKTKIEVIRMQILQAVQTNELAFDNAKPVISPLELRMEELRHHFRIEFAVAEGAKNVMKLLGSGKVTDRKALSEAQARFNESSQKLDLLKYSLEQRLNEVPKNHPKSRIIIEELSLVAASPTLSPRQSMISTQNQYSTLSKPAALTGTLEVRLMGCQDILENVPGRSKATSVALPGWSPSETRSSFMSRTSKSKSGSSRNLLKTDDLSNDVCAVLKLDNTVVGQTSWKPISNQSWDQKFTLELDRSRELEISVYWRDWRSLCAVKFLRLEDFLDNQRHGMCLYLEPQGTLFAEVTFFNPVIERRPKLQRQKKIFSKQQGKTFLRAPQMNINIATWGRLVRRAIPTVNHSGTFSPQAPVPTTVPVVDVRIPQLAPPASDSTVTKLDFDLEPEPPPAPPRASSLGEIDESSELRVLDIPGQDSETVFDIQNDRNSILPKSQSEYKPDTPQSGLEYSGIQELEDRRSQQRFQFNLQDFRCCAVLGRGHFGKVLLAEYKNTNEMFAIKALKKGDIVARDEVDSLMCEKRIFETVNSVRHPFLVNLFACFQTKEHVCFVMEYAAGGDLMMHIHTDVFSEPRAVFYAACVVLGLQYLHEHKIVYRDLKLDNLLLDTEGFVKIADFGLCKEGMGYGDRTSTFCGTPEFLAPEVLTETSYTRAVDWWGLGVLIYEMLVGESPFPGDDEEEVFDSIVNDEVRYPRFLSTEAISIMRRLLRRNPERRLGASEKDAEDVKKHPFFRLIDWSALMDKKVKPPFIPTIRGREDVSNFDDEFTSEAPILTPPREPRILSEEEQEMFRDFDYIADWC
Protocol: as §1, §2, §3, §4, §5, §6, §7, §8

human kinome [17] = biological target: human kinome (Homo sapiens, UniProt Q6P2M8); conditions: CAMK1B (Entrez PNCK); 100 nM; read-out: Percent Control
Protocol: as §1, §2, §3, §4, §5, §6, §7, §8

human kinome [18] = biological target: human kinome (Homo sapiens, UniProt Q86Y07); conditions: kinase VRK2 (Entrez VRK2); compound concentration 1000 nM; read-out: Percent Control
Protocol: as §1, §2, §3, §4, §5, §6, §7, §8

human kinome [19] = biological target: human kinome (Homo sapiens, UniProt Q8TF76); conditions: HASPIN (Entrez GSG2); 100 nM; read-out: Percent Control
Protocol: as §1, §2, §3, §4, §5, §6, §7, §8

human kinome [20] = biological target: human kinome (Homo sapiens, UniProt Q8WTQ7); conditions: GRK7; 100 nM; read-out: Percent Control
Protocol: as §1, §2, §3, §4, §5, §6, §7, §8

human kinome [21] = biological target: human kinome (Homo sapiens, UniProt Q96PY6); conditions: read-out: Percent Control
Chain of human kinome (Homo sapiens, UniProt Q96PY6) (Q96PY6 whole entry): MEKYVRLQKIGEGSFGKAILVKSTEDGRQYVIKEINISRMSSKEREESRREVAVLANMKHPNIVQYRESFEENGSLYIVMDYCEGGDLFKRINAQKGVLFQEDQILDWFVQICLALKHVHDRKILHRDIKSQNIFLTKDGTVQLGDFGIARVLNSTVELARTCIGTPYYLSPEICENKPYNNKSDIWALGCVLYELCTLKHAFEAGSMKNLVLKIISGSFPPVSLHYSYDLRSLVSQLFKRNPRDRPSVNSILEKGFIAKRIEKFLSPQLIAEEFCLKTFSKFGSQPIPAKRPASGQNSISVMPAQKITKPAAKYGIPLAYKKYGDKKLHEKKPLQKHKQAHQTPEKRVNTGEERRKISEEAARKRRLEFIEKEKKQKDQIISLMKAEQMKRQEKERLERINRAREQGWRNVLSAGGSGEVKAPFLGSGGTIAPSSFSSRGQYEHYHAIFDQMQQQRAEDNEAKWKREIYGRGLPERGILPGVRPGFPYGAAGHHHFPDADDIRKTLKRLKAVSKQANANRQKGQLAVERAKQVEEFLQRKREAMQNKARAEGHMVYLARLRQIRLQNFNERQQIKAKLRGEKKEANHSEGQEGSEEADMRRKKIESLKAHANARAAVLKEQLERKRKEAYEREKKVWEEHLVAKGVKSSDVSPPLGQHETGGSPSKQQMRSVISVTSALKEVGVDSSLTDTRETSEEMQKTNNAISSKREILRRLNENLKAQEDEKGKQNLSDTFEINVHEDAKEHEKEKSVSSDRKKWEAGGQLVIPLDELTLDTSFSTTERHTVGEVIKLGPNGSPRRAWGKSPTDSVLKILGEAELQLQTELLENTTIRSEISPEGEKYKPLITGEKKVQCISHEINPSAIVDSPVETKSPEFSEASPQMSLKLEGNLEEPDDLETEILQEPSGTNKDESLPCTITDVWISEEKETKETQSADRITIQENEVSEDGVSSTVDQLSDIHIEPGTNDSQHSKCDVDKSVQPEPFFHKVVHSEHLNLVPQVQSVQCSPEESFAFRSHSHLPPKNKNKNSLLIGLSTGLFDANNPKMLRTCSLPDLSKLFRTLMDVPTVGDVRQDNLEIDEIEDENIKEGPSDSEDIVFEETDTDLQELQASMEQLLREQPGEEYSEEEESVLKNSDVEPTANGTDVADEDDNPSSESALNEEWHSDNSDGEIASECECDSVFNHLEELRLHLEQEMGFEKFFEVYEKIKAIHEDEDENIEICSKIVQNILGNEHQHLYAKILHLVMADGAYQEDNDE
Protocol: as §1, §2, §3, §4, §5, §6, §7, §8

human kinome [22] = biological target: human kinome (Homo sapiens, UniProt Q9BX84); conditions: kinase TRPM6 (Entrez TRPM6); compound concentration 1000 nM; read-out: Percent Control
Protocol: as §1, §2, §3, §4, §5, §6, §7, §8

human kinome [23] = biological target: human kinome (Homo sapiens, UniProt Q9BZL6); conditions: read-out: Percent Control
Protocol: as §1, §2, §3, §4, §5, §6, §7, §8

human kinome [24] = biological target: human kinome (Homo sapiens, UniProt Q9H0K1); conditions: kinase SIK2 (Entrez SIK2); compound concentration 1000 nM; read-out: Percent Control
Protocol: as §1, §2, §3, §4, §5, §6, §7, §8

human kinome [25] = biological target: human kinome (Homo sapiens, UniProt Q9H1R3); conditions: read-out: Percent Control
Protocol: as §1, §2, §3, §4, §5, §6, §7, §8

human kinome [26] = biological target: human kinome (Homo sapiens, UniProt Q9NSY1); conditions: BIKE (Entrez BMP2K); 100 nM; read-out: Percent Control
Protocol: as §1, §2, §3, §4, §5, §6, §7, §8

human kinome [27] = biological target: human kinome (Homo sapiens, UniProt Q9NYY3); conditions: read-out: Percent Control
Chain of human kinome (Homo sapiens, UniProt Q9NYY3) (Q9NYY3 whole entry): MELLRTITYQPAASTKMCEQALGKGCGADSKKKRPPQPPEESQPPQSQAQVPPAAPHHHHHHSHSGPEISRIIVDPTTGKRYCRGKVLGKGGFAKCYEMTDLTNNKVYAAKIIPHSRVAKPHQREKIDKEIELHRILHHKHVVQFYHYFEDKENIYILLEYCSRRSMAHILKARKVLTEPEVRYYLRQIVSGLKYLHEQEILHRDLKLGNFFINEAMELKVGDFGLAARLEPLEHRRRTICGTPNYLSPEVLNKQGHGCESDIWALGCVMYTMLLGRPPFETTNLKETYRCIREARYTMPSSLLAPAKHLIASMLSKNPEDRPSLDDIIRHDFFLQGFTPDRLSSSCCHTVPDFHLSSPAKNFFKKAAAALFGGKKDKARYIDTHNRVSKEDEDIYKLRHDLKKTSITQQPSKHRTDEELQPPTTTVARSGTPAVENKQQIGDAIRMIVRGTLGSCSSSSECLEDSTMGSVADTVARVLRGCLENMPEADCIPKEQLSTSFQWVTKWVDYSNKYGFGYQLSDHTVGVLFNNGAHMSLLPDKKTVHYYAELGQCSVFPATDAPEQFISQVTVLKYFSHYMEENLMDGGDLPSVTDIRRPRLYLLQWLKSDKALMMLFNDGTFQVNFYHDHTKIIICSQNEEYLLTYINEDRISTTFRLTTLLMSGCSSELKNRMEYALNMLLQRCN
Protocol: as §1, §2, §3, §4, §5, §6, §7, §8

human kinome [28] = biological target: human kinome (Homo sapiens, UniProt Q9P1W9); conditions: read-out: Percent Control
Chain of human kinome (Homo sapiens, UniProt Q9P1W9) (Q9P1W9 whole entry): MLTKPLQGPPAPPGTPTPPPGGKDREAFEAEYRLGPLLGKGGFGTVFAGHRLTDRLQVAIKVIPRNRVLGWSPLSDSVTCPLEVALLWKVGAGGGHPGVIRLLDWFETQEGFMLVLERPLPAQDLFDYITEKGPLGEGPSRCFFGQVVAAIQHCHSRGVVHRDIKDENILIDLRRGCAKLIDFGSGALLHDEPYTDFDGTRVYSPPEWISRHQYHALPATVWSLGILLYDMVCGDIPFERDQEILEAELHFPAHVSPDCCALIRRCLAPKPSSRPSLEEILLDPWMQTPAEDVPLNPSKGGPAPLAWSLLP
Protocol: as §1, §2, §3, §4, §5, §6, §7, §8

human kinome [29] = biological target: human kinome (Homo sapiens, UniProt Q9Y2K2); conditions: read-out: Percent Control
Chain of human kinome (Homo sapiens, UniProt Q9Y2K2) (Q9Y2K2 whole entry): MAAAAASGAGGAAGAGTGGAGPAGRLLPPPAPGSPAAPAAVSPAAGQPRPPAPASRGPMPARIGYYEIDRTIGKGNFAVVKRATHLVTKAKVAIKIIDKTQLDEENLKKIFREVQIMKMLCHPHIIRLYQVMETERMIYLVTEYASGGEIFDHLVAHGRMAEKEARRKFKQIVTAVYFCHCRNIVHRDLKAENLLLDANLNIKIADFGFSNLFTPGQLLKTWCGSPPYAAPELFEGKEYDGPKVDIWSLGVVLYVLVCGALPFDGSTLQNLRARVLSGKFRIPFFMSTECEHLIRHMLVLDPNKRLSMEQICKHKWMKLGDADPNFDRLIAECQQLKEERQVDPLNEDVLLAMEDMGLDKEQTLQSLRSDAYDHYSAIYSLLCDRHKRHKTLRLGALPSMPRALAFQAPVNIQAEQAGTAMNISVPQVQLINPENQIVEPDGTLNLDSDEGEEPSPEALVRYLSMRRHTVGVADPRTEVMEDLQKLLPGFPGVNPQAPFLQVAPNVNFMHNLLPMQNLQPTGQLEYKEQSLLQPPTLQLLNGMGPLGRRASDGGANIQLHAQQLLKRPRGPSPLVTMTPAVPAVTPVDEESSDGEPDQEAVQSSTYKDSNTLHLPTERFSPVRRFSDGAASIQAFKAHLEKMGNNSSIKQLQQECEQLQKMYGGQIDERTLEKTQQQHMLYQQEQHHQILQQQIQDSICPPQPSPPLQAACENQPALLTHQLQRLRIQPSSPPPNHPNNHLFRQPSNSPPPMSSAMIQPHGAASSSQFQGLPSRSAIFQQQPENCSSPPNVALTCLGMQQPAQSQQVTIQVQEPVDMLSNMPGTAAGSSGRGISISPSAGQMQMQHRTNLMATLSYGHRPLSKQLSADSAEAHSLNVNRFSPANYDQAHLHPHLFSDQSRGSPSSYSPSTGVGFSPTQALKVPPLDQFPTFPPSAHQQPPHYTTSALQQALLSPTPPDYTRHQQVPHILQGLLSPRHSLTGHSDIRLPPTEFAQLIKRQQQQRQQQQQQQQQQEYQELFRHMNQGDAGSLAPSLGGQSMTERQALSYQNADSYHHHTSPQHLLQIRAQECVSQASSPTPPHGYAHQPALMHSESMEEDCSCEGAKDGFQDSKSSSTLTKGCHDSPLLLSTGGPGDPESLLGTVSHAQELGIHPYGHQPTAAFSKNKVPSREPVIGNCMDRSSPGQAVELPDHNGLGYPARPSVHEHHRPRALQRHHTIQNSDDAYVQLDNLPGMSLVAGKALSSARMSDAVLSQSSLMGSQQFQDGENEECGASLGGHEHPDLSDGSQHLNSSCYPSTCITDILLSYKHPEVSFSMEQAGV
Protocol: as §1, §2, §3, §4, §5, §6, §7, §8

Q: With `COc1cc(F)ccc1-c1cc(Nc2cc(CS(C)(=N)=O)ccn2)ncc1F` (stereo not shown) [VIP152] as the compound, how does the remaining binding at 1 µM (human kinome [1]) read?
A: 87%

Q: And the remaining binding at 0.1 µM (human kinome [2])?
A: 95%

Q: What about the remaining binding at 1 µM (human kinome [3]) of the same compound?
A: 94%

Q: And the remaining binding at 0.1 µM (human kinome [4]; PDGFRB, 100 nM)?
A: 100%

Q: And the remaining binding at 1 µM (human kinome [4]; kinase PDGFRB (Entrez PDGFRB), compound concentration 1000 nM)?
A: 71%

Q: What about the remaining binding at 0.1 µM (human kinome [5]) of the same compound?
A: 100%

Q: And the remaining binding at 0.1 µM (human kinome [6])?
A: 100%

Q: What about the remaining binding at 0.1 µM (human kinome [7]) of the same compound?
A: 100%

Q: And the remaining binding at 0.1 µM (human kinome [8]; PIK3CA(E542K), 100 nM)?
A: 100%

Q: And the remaining binding at 1 µM (human kinome [8]; kinase PIK3CA(E542K) (Entrez PIK3CA), compound concentration 1000 nM)?
A: 100%

Q: What about the remaining binding at 0.1 µM (human kinome [9]; PIK3CA(I800L), 100 nM) of the same compound?
A: 100%

Q: What about the remaining binding at 1 µM (human kinome [9]; kinase PIK3CA(I800L) (Entrez PIK3CA), compound concentration 1000 nM) of the same compound?
A: 98%

Q: What about the remaining binding at 0.1 µM (human kinome [10]) of the same compound?
A: 100%

Q: What about the remaining binding at 0.1 µM (human kinome [11]; PRKX, 100 nM) of the same compound?
A: 100%

Q: And the remaining binding at 1 µM (human kinome [11]; kinase PRKX (Entrez PRKX), compound concentration 1000 nM)?
A: 99%

Q: And the remaining binding at 0.1 µM (human kinome [12])?
A: 88%

Q: What about the remaining binding at 0.1 µM (human kinome [13]) of the same compound?
A: 69%

Q: What about the remaining binding at 0.1 µM (human kinome [14]) of the same compound?
A: 100%

Q: And the remaining binding at 0.1 µM (human kinome [15])?
A: 89%

Q: And the remaining binding at 0.1 µM (human kinome [16]; PKN2, 100 nM)?
A: 96%

Q: What about the remaining binding at 1 µM (human kinome [16]; kinase PKN2 (Entrez PKN2), compound concentration 1000 nM) of the same compound?
A: 92%

Q: What about the remaining binding at 0.1 µM (human kinome [17]) of the same compound?
A: 87%

Q: What about the remaining binding at 1 µM (human kinome [18]) of the same compound?
A: 81%

Q: What about the remaining binding at 0.1 µM (human kinome [19]) of the same compound?
A: 93%

Q: And the remaining binding at 0.1 µM (human kinome [20])?
A: 100%

Q: What about the remaining binding at 0.1 µM (human kinome [21]; NEK1, 100 nM) of the same compound?
A: 100%

Q: And the remaining binding at 1 µM (human kinome [21]; kinase NEK1 (Entrez NEK1), compound concentration 1000 nM)?
A: 99%

Q: And the remaining binding at 1 µM (human kinome [22])?
A: 96%

Q: What about the remaining binding at 0.1 µM (human kinome [23]; PRKD2, 100 nM) of the same compound?
A: 90%

Q: And the remaining binding at 1 µM (human kinome [23]; kinase PRKD2 (Entrez PRKD2), compound concentration 1000 nM)?
A: 88%

Q: What about the remaining binding at 1 µM (human kinome [24]) of the same compound?
A: 79%

Q: What about the remaining binding at 0.1 µM (human kinome [25]; MYLK2, 100 nM) of the same compound?
A: 100%

Q: And the remaining binding at 1 µM (human kinome [25]; kinase MYLK2 (Entrez MYLK2), compound concentration 1000 nM)?
A: 91%

Q: What about the remaining binding at 0.1 µM (human kinome [26]) of the same compound?
A: 100%

Q: And the remaining binding at 0.1 µM (human kinome [27]; PLK2, 100 nM)?
A: 100%

Q: What about the remaining binding at 1 µM (human kinome [27]; kinase PLK2 (Entrez PLK2), compound concentration 1000 nM) of the same compound?
A: 83%

Q: And the remaining binding at 0.1 µM (human kinome [28]; PIM2, 100 nM)?
A: 100%

Q: And the remaining binding at 1 µM (human kinome [28]; kinase PIM2 (Entrez PIM2), compound concentration 1000 nM)?
A: 100%

Q: What about the remaining binding at 0.1 µM (human kinome [29]; QSK (Entrez KIAA0999), 100 nM) of the same compound?
A: 100%

Q: And the remaining binding at 1 µM (human kinome [29]; kinase QSK (Entrez KIAA0999), compound concentration 1000 nM)?
A: 98%
